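A five-concentration, 48-hour dose response in 96-well plates underlies each endpoint, interpolated linearly between surrounding concentrations. GI50: concentration for 50% inhibition of growth.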 Active and inactive are the calls of the source. No stated cut-off is given here; in the data, active = GI50 up to about 1.1 µM and inactive = higher.
Legend:
Assay in all cases: DTP human tumour cell line panel, 48 h
ACHN = system: ACHN
HL-60 = system: HL-60
SF-295 = system: SF-295
TK-10 = system: TK-10
SNB-19 = system: SNB-19
T47D = system: T47D
OVCAR-4 = system: OVCAR-4
NCI-H522 = system: NCI-H522
786-0 = system: 786-0
A549 = system: A549
MDA-N = system: MDA-N
M14 = system: M14
LOX IMVI = system: LOX IMVI
OVCAR-8 = system: OVCAR-8
NCI-H460 = system: NCI-H460
DU-145 = system: DU-145
HCT-15 = system: HCT-15
RXF 393 = system: RXF 393
RPMI-8226 = system: RPMI-8226

| SMILES | GI50 (ACHN) | GI50 (HL-60) | GI50 (SF-295) | GI50 (TK-10) | GI50 (SNB-19) | GI50 (T47D) | GI50 (OVCAR-4) | GI50 (NCI-H522) | GI50 (786-0) | GI50 (A549) | GI50 (MDA-N) | GI50 (M14) | GI50 (LOX IMVI) | GI50 (OVCAR-8) | GI50 (NCI-H460) | GI50 (DU-145) | GI50 (HCT-15) [µM] | GI50 (RXF 393) | GI50 (RPMI-8226) |
| --- | --- | --- | --- | --- | --- | --- | --- | --- | --- | --- | --- | --- | --- | --- | --- | --- | --- | --- | --- |
| COC(=O)C1=C(O)C(C(=O)OC)[C@]2(O)[C@@H](C(=O)OC)[C@H]1[C@H](C)[C@@H](c1ccccc1)[C@@H]2C(=O)OC (stereo partly drawn) | 91.8 µM (inactive) | 26.4 µM (inactive) | 78.2 µM (inactive) | > 100 µM (inactive) | > 100 µM (inactive) | > 100 µM (inactive) | 80 µM (inactive) | 18.9 µM (inactive) | 62.2 µM (inactive) | 56.4 µM (inactive) | 29.2 µM (inactive) | 88.1 µM (inactive) | 53.7 µM (inactive) | 54.2 µM (inactive) | 69.2 µM (inactive) | > 100 µM (inactive) | 57.8 | > 100 µM (inactive) |  |
| COc1ccc(N[S+]([O-])c2ccc(OC)cc2)cc1 (stereo not drawn) | 95.1 µM (inactive) | 41.2 µM (inactive) | 24 µM (inactive) | > 100 µM (inactive) | 60.1 µM (inactive) | 15.5 µM (inactive) | > 100 µM (inactive) | 21.5 µM (inactive) | 84.9 µM (inactive) | 33.6 µM (inactive) | 41.3 µM (inactive) | > 100 µM (inactive) | 17.4 µM (inactive) | 82.2 µM (inactive) | 29 µM (inactive) | 64.9 µM (inactive) | 11.2 |  | 47 µM (inactive) |
| COC(=O)C1=NN2c3ccccc3CN([C@@H](C)c3ccccc3)C(=O)[C@@H]2[C@H]1c1ccccc1 | > 100 µM (inactive) | > 100 µM (inactive) | > 100 µM (inactive) | > 100 µM (inactive) | > 100 µM (inactive) | 9.75 µM (inactive) | > 100 µM (inactive) | 43.4 µM (inactive) | > 100 µM (inactive) | > 100 µM (inactive) | > 100 µM (inactive) | > 100 µM (inactive) | > 100 µM (inactive) | > 100 µM (inactive) | > 100 µM (inactive) | > 100 µM (inactive) | > 100 | > 100 µM (inactive) |  |
| Cc1ccc(S(=O)(=O)c2c(O)c3ccc(O)c(C)c3oc2=O)cc1 | > 100 µM (inactive) | 23.4 µM (inactive) | > 100 µM (inactive) | > 100 µM (inactive) | > 100 µM (inactive) | > 100 µM (inactive) | > 100 µM (inactive) | > 100 µM (inactive) | > 100 µM (inactive) | > 100 µM (inactive) | > 100 µM (inactive) | > 100 µM (inactive) |  | > 100 µM (inactive) | > 100 µM (inactive) | > 100 µM (inactive) | > 100 | > 100 µM (inactive) | > 100 µM (inactive) |
| O=c1c2cc(Br)ccc2oc2ccc(Br)cc12 | > 100 µM (inactive) | > 100 µM (inactive) | > 100 µM (inactive) | > 100 µM (inactive) | > 100 µM (inactive) | 81.3 µM (inactive) | 46.3 µM (inactive) | > 100 µM (inactive) | 64.7 µM (inactive) | > 100 µM (inactive) | > 100 µM (inactive) | > 100 µM (inactive) |  | > 100 µM (inactive) | > 100 µM (inactive) | 84.1 µM (inactive) | > 100 | > 100 µM (inactive) | > 100 µM (inactive) |
| CC(C)(C)OC(=O)n1c(Cl)c(C=O)c2ccccc21 | 23.9 µM (inactive) | 33.8 µM (inactive) | 63.2 µM (inactive) | 25.6 µM (inactive) | 86.1 µM (inactive) | 30.6 µM (inactive) | 36.6 µM (inactive) | > 100 µM (inactive) | 21 µM (inactive) | 92.9 µM (inactive) | 44.5 µM (inactive) | 34.8 µM (inactive) | 26.4 µM (inactive) | 28.1 µM (inactive) | 21.2 µM (inactive) | 19.3 µM (inactive) | 27.1 |  | 10.9 µM (inactive) |

Reference: ChEMBL document CHEMBL1201862, “PubChem BioAssay data set” (2004)
